The text below walks through data of patent US6903117B2, “Indole derivatives for the treatment of osteoporosis” (Nikem Research S.R.L., priority 1996, dated 2005).

One data set relates to osteoclast proton pump. To be noted: avian osteoclast membrane vesicles; cited from earlier work.
In data set [1] the target is bafilomycin-sensitive ATPase in chicken osteoclasts (Gallus gallus, UniProt A0A8V0Z1D5+Q9I8C8). The data set is described as follows: Inhibition of bafilomycin-sensitive ATPase in chicken osteoclasts. It counts as biochemical. As for the experimental part: Vesicles were prepared from medullar bone obtained from tibiae and femurs of egg-laying hens which were calcium-starved for at least 15 days. Briefly, bone fragments were scraped with a 24 scalpel blade, suspended in 40 ml of isolation medium (0.2 M sucrose, 50 mM KCl, 10 mM Hepes, 1 mM EGTA, 2 mM dithiotheitrol, pH 7.4) and filtered through a 100 μm pore size nylon mesh. The whole procedure was performed at 4° C. After homogenisation in a potter (20 strokes) in 40 ml of isolation medium an initial centrifugation (6,500×gmax×20 min) was performed to remove mitochondria and lysosomes. The supernatant was centrifuged at 100,000×gmax for 1 hr and the pellet was collected in 1 ml of isolation medium, divided into 200 μl aliquots, immediately frozen in liquid nitrogen and stored at −80° C. The protein content was determined using a Biorad colourimetric kit according to Bradford [M. Bradford, Anal. Biochem., 72, 248 (1976)]. For the proton transport assay, 5-10 μl of membranes were used.
Purification of osteoclast membranes. 1 ml of crude microsomal vesicles prepared above were applied (about 0.2 ml per tube) on the top of a sucrose step-gradient consisting of 3.5 ml of 15%, 30% and 45% (w/w) sucrose in isolation medium and centrifuged at 280,000 gmax for 2 hours (SW 41 Ti rotor). After centrifugation the 30-45% sucrose interfaces were collected, diluted approx. 20-fold in isolation medium and pelletted at 100,000 gmax for 1 hour (SW 28 rotor). The pellet was then resuspended in 1 ml of isolation medium, aliquoted and frozen in liquid N2 and stored at −80° C. until used.
Inhibition of bafilomycin-sensitive ATPase activity was assessed in purified membrane vesicles by measuring the release of inorganic phosphate (Pi) during 30 min of incubation at 37° C. in a 96-well plate either in the presence or in the absence of bafilomycin A1. The reaction medium contained 1 mM ATP, 10 mM HEPES-Tris pH 8, 50 mM KCl, 5 uM valinomycin, 5 uM nigericin, 1 mM CDTA-Tris, 100 uM ammonium molybdate, 0.2 M sucrose and membranes (20 ug protein/ml). The reaction was initiated by MgSO4 (8-arm pipette) and stopped, after 30 min, by addition of 4 volumes of the malachite green reagent (96-arm pipette) prepared according to Chan [Anal. Biochem. 157, 375 (1986)]. Absorbance at 650 nm was measured after 2 min using a microplate reader. Results are expressed as μmol (Pi)×mg protein^−1×hour^−1 and, for each experiment, represent the mean±sem of triplicates.

The test system of another data set is human osteoclasts. As to the kind of experiment: Human Osteoclast Resorption Assay. Conditions: human osteoclasts on bone slices. It counts as cell-based. As for the experimental part:
1) Bone resorption by disaggregated rat osteoclasts can be assessed as described previously in the literature [T. J. Chambers et al., Endocrinology, 1985, 116, 234]. Briefly, osteoclasts were mechanically disaggregated from neonatal rat long bones into Hepes-buffered medium 199 (Flow, UK). The suspension was agitated with a pipette, and the larger fragments were allowed to settle for 30 sec. The cells were then added to two wells of a multiwell dish containing bone slices (each measuring 12 mm^2). After 15 min at 37° C. the bone slices were removed, washed in medium 199 and placed in individual wells of a 96-well plate. […] The number of osteoclasts and bone resorption were quantified by confocal laser scanning microscopy (CLSM): the bone slices were fixed with 2% glutaraldehyde in 0.2 M cacodylate buffer and the osteoclasts on each bone slice were stained for tartrate-resistant acid phosphatase. […] The number and the size of the osteoclastic excavations, the plain area and the volume of bone resorbed was recorded. Results were expressed as mean pit number per bone slice, mean pit number per osteoclast, mean area per osteoclast or mean volume per osteoclast.
2) Bone resorption by human osteoclasts can be assessed using a modification of the method above. […] Bone slices were then treated and analysed as described above for the rat osteoclast assay.

The subject of data set [2] is ovariectomised mature rats. As to the kind of experiment: Prevention of bone loss in ovariectomised mature rats. In kind it is in vivo, rat. To be noted: % prevention of bone loss versus vehicle treated animals. An excerpt:
Prevention of bone loss in ovariectomised mature rats. The methodology employed is based on that described by Wronsky et al. [J. Bone Min. Res., 6, 387 (1991)]. The bone loss, prevalently cancellous, occuring after the surgery is monitored by dual emission X-ray absorptiometry (DEXA) measurements of bone mineral density (BMD) of long bones and by HPLC measurements of urinary levels of products of bone collagen breakdown, such as the cross-link residues pyridinoline (PYD), deoxypyridinoline (DPD) and lysine glycosides, i.e. galactosyl-hydroxylysine (GHYL) and glucosyl-galactosyl-hydroxylysine (GGHYL). Groups of 7-10 female Sprague-Dawley rats, about 90 days old and weighing 200-250 g are used. Rats are anesthetised by sodium pentobarbital (35 mg/kg i.v.), laparotomy is performed and ovaries are bilaterally removed. Wounds are adequately disinfected and sutured. A group is sham operated. […] Before and at the end of the experimental period, the bone metaphyseal mineral densities of left distal femur and proximal tibia were evaluated in vivo using lightly anaesthetised animals. Results are expressed as % of prevention of bone loss versus vehicle treated animals, using the following equation, where BMD indicates the bone mineral density at the end of the experimental period and is expressed as the percent of pre-ovariectomy baseline: [formula] […]

A further data set has as its system osteoclast cultures. To be noted: cited from earlier work.
Where [3] appears, read: read-out: IC50 (nM) ATPase assay, chicken osteoclast membranes.
Setting [4] is: chicken osteoclast membranes, read-out: IC50 (nM) ATPase assay.

Counter-ions that a name gives are not always drawn. Like-named read-outs stand apart in the source and are kept apart here.

Chain of bafilomycin-sensitive ATPase in chicken osteoclasts (Q9I8C8 entry or part of it): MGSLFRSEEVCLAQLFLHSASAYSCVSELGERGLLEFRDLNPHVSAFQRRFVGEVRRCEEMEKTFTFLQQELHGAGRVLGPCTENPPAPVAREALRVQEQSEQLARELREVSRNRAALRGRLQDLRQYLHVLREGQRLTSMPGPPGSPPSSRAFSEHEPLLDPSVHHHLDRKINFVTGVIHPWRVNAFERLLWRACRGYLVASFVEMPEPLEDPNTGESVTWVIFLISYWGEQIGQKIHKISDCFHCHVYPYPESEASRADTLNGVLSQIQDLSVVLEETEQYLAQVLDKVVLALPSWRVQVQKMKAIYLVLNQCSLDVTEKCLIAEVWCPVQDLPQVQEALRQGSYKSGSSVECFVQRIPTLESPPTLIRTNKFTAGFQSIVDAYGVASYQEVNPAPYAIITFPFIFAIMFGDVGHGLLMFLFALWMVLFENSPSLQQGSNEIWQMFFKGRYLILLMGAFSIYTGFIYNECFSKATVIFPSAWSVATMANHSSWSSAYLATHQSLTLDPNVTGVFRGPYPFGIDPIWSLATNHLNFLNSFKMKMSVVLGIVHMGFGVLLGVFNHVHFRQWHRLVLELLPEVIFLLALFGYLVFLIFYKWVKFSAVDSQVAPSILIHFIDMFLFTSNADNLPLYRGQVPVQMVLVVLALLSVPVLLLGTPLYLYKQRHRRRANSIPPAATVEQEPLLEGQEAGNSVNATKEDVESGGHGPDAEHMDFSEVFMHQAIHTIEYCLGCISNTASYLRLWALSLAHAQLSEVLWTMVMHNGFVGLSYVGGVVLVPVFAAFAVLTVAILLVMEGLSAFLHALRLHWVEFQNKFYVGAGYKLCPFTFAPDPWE
Chain of bafilomycin-sensitive ATPase in chicken osteoclasts (P49712 whole entry, further chain, the tested form may be a part): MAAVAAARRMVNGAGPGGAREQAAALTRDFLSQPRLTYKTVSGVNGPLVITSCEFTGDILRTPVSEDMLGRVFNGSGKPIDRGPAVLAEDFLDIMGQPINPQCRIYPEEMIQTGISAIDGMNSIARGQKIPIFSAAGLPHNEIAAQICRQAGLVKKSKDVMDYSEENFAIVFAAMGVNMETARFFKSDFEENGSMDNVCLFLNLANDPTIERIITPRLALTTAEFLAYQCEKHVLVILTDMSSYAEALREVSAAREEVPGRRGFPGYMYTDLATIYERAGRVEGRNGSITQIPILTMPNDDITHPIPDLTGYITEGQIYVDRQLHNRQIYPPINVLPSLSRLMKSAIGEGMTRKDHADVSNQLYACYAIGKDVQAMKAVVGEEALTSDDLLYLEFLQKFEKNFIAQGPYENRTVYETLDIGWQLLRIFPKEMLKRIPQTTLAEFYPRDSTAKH
Chain of bafilomycin-sensitive ATPase in chicken osteoclasts (Q5ZHL0 whole entry, further chain, the tested form may be a part): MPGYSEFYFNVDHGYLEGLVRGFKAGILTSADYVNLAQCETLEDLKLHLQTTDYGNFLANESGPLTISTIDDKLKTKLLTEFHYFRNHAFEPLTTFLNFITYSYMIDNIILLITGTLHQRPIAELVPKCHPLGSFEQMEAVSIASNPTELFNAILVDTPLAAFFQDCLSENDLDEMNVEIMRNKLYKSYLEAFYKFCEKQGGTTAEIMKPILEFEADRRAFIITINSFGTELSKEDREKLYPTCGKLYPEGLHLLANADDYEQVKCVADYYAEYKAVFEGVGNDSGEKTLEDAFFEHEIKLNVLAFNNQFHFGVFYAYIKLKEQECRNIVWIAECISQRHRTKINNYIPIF
Chain of bafilomycin-sensitive ATPase in chicken osteoclasts (Q90647 whole entry, further chain, the tested form may be a part): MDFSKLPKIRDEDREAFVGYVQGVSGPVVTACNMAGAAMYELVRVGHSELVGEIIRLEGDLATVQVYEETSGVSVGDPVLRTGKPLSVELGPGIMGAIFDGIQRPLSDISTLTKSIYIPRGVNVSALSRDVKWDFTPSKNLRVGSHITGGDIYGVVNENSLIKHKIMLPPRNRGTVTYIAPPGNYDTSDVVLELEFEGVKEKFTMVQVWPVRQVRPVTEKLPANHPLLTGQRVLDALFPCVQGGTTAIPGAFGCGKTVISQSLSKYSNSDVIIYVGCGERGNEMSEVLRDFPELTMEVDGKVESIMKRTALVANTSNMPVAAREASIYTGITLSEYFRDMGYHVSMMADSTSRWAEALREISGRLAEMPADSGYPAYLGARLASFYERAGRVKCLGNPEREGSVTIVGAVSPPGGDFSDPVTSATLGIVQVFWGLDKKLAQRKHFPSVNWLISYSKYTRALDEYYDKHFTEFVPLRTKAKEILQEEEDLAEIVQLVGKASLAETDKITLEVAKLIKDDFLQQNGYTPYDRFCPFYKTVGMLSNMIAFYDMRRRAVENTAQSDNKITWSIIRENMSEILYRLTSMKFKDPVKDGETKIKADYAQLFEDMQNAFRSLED
Chain of bafilomycin-sensitive ATPase in chicken osteoclasts (A0A8V0Z1D5 entry or part of it): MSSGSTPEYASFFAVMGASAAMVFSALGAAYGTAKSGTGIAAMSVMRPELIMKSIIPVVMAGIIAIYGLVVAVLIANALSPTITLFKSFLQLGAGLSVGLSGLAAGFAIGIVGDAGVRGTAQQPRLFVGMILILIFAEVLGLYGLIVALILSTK

With `[Na+].[Na+].[Na+].[O]=[V]([O-])([O-])[O-]` [sodium orthovanadate], in the data set with osteoclast proton pump, the “inhibition of proton transport by the osteoclast proton pump” value (“inhibition of proton transport” below) was “not inhibited”.

A word on the melting point: it is the temperature of the solid-liquid transition. In general, IC50 refers to the point on the concentration scale where inhibition reaches its midpoint. `CO/C(=C\C=C\c1cc2cc(Cl)c(Cl)cc2[nH]1)C(=O)NCCCN1CCN(c2cccc(Cl)c2)CC1` [Example 68, (2Z,4E)-5-(5,6-Dichloro-1H-indol-2-yl)-N-[3-[-4-(3-chlorophenyl)piperazin-1-yl]propyl]-2-methoxy-2,4 pentadienamide]: the melting point lay within 192 to 193 °C. Besides, in data set [1] (setting [3]), the IC50 turned out to be 18 nM.

`CCN1C(=O)C=CC1=O` [N-ethylmaleimide]: in the data set on osteoclast proton pump, the “inhibition of proton transport” value was “inhibited”.

As for `CO/C(=C\C=C\c1cc2cc(Cl)c(Cl)cc2[nH]1)C(=O)NC1CC(C)(C)N(C)C(C)(C)C1` [Example 1, (2Z,4E)-5-(5,6-Dichloro-1H-indol-2-yl)-2-methoxy-N-(1,2,2,6,6-pentamethylpiperidin-4-yl)-2,4-pentadienamide], the 50% inhibitory concentration (IC50) worked out at 3.4 nM with human osteoclasts and 24 nM in data set [1] (setting [4]). Moreover, the “Protection of bone loss in ovariectomised mature rats at 10 mg/kg p.o.” value in data set [2] is 76%.

Consider `CO/C(=C\C=C\c1cc2cc(Cl)c(Cl)cc2[nH]1)C(=O)NC1CCCC(N(C)C)C1` (stereo not shown) [Example 61, (2Z,4E)-5-(5,6-Dichloro-1H-indol-2-yl)-N-(3-dimethylamino-cyclohexyl)-2-methoxy-2,4-pentadienamide], for which the melting point lay within 200 to 201 °C. Further, in data set [1] (setting [4]), the half-maximal inhibitory concentration (IC50) is 41 nM.

As to `CO/C(=C\C=C\c1cc2cc(Cl)c(Cl)cc2[nH]1)C(=O)NCCCN1CCN(c2ccccn2)CC1` [Example 75, (2Z,4E)-5-(5,6-Dichloro-1H-indol-2-yl)-N-[3-[4-(2-pyridyl)piperazin-1-yl]propyl]-2-methoxy-2,4-pentadienamide], the melting point lay in the range of 219 to 220 °C. The IC50 in data set [1] (setting [4]) amounted to 30 nM.

With `CO/C(=C\C=C\c1cc2cc(Cl)c(Cl)cc2[nH]1)C(=O)NCCCN1CCCN(c2ncccn2)CC1` [Example 74, (2Z,4E)-5-(5,6-Dichloro-1H-indol-2-yl)-N-[3-[4-(2-pyrimidinyl)homopiperazin-1-yl]propyl]-2-methoxy-2,4-pentadienamide], the melting point was in the range of 220 to 222 °C. Moreover, the half-maximal inhibitory concentration (IC50) in data set [1] (setting [4]) was determined as 42 nM.

`CO/C(=C\C=C\c1cc2cc(Cl)c(Cl)cc2[nH]1)C(=O)NCCCN1CCN(c2ccccc2)CC1` [Example 64, (2Z,4E)-5-(5,6-Dichloro-1H-indol-2-yl)-2-methoxy-N-(3-[-4-(phenyl)piperazin-1-yl]propyl] 2,4-pentadienamide]: the melting point was in the range of 223 to 225 °C. Further, the IC50 in data set [1] (setting [3]) came to 67 nM.

In the case of `COC(=CC=Cc1cc2cc(Cl)c(Cl)cc2[nH]1)C(=O)NCCCN1C(C)CN(c2ncccn2)CC1C` (stereo not shown) (as salt: hydrochloride) [Example 62, (2Z,4E)-5-(5,6-Dichloro-1H-indol-2-yl)-N-[3-[2,6-dimethyl-4-(2-pyrimidinyl)plperazin-1-yl]propyl]-2-methoxy-2,4-pentadienamide hydrochloride], the melting point is 245 °C.

Take `COC(=CC=Cc1cc2cc(Cl)c(Cl)cc2[nH]1)C(=O)NCCCN1C(C)CN(c2ncccn2)CC1C` (stereo not shown) [Example 62, (2Z,4E)-5-(5,6-Dichloro-1H-indol-2-yl)-N-[3-[2,6-dimethyl-4-(2-pyrimidinyl)plperazin-1-yl]propyl]-2-methoxy-2,4-pentadienamide hydrochloride]: the half-inhibitory concentration (IC50) in data set [1] (setting [4]) was determined as 30 nM.

With `CO/C1=C\C(C)=C\[C@@H](C)[C@@H](O)[C@@H](C)C/C(C)=C/C=C/[C@H](OC)[C@@H]([C@@H](C)[C@@H](O)[C@H](C)[C@@]2(O)C[C@@H](O)[C@H](C)[C@@H](C(C)C)O2)OC1=O` [bafilomycin A1], the “inhibition of proton transport” value with osteoclast proton pump is reported as “inhibited”. For the same compound, the “inhibition of bone resorption in osteoclast cultures” value in the data set on osteoclast cultures is recorded as “able to inhibit”.

For `C[C@@H]1O[C@@H](O[C@H]2C[C@@H](O)[C@]3(CO)[C@H]4[C@H](O)C[C@]5(C)[C@@H](C6=CC(=O)OC6)CC[C@]5(O)[C@@H]4CC[C@]3(O)C2)[C@H](O)[C@H](O)[C@H]1O` [ouabain], the “inhibition of proton transport” value with osteoclast proton pump was “not inhibited”.

In the case of “(2Z,4E)-5-(5,6-Dichloro-1H- indol-2-yl)-N-(2a beta, 4a alpha, 6 beta, 7a alpha- decahydro-pyrrolo[2.1.5- cd]indolizyn-6-yl)-2- methoxy-2,4- pentadienamide [Example 55]”, in data set [1] (setting [4]), the IC50 is 23 nM.

Consider `Cc1nc2c(OCc3ccccc3)cccn2c1CC#N` [SCH 28080], for which the “inhibition of proton transport” value in the data set with osteoclast proton pump is listed as “not inhibited”.
